The target in test [1] is T1, NK3 receptors (Homo sapiens, UniProt P29371).
T1 construct: expressed in transfected cells
T1 sequence (P29371 1-465): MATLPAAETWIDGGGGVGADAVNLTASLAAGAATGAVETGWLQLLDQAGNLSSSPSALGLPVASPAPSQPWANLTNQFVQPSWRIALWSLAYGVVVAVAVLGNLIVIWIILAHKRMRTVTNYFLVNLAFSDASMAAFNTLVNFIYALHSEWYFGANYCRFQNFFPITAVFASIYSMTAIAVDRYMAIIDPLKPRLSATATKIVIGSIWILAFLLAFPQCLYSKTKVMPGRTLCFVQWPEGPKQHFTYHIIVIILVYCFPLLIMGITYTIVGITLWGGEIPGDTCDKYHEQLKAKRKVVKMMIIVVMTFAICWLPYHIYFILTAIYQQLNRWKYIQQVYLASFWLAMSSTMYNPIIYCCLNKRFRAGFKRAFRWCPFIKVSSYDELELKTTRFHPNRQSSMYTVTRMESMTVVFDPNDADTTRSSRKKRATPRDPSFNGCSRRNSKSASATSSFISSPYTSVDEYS
The test can be described thus: Calcium ion fluidity (FLIPR) in cells with stable expression of NK3 receptors. It counts as cell-based. Particulars: calcium signal, antagonist mode, read-out: NK3R IC50 (nM) FLIPR. From the text: Determination of the Effect of the Compounds of the Present Invention on Calcium Ion Fluidity in Cells with Stable Expression of NK3 Receptors
Experimental objective: The objective of this test example was to determine the inhibitory effect of the compounds on NK3 receptors.
Experimental Methods: • 1. […] Probenecid and BSA were freshly added on the day of the experiment. The buffers for the experiments included dye buffer, compound dilution buffer and the like. • 2. […] The culture medium was discarded, and 20 μL of dye was added. The cells were incubated at 37° C. in the dark for 60 min, and then the calcium signal was read. • 4. The antagonist was prepared before the experiments. […] The plate was transferred to FLIPR, and 6× concentration of the agonist compound was added at 5 μL/well. The values were read and the data were saved by using FLIPR. The total assay volume was 30 μL, comprising 20 μL/well of dye buffer, 5 μL/well of 5× concentration of the experimental compound, and 5 μL/well of 6× concentration of the agonist compound.
The calcium signal value was read by FLIPR. The output of each sampling time point in the experiment was calculated as the ratio of the signals at wavelengths of 340/510 nm to 380/510 nm. The maximum minus minimum value was calculated from the ratio signal curve. The IC50 value of the compound was calculated by fitting the data of inhibition rate percentage and ten concentrations to the parametric nonlinear logistic equation by using GraphPad prism.

For test [2], the target named is T1, NK3 receptors. The test can be described thus: Antagonism of IP1 in HEK293 cells with stable expression of NK3. It counts as cell-based. Particulars: agonist Senktide 3 nM, read-out: NK3R IC50 (nM) IP1. On the procedure: Determination of the Effect of the Compounds of the Present Invention on IP1 in HEK293 Cells with Stable Expression of NK3
The objective of this test example was to determine the antagonism effect of the compounds on the activity of HEK293-NK3 cells.
3. Experimental Methods: • 1. […] HEK293-NK3 cell line was cultured in complete medium and seeded in the coated dishes at 37° C., 5% CO2 until 70%˜90% confluence. • 3. […] The cells were digested and resuspended in 1× Stimulation Buffer (IP-ONE Gq Kit), seeded into the 384-well cell culture plate (which contained the compound to be tested) at 5,000 cells/well/5 μL by using Multidrop Combi. The culture plate was centrifuged at 300 rpm at room temperature for 60 seconds, and then incubated at 37° C., 5% CO2 for 15 minutes. • 5. The cell culture plate was taken out from the CO2 incubator. […] The culture plate was centrifuged at 300 rpm at room temperature for 60 seconds, and then incubated at 37° C., 5% CO2 for 2 hours. • 6. The cell culture plate was taken out from the CO2 incubator. 5 μL of IP1 d2 reagent and then 5 μL of IP1 Tb Cryptate Antibody reagent were added by using Multidrop Combi. The culture plate was centrifuged at room temperature at 300 rpm for 60 seconds, and left to stand at room temperature for 1 hour. • 7. The plate was read by using EnVision Multilabel Reader, and data were collected at the same time.
The fluorescence signal ratio (Ratio) was read and collected by EnVision Multilabel Reader. According to the readings of the Low control (DMSO control) and High control (p)ositive compound) experimental groups, the antagonism percentage data were calculated as {% antagonism=(Ratio sample−Ratio low control)/(Ratio high control−Ratio low control)×100}.

The structures appear in SMILES notation.

Consider 19 molecules from patent US20230271969A1, “NITROGEN-CONTAINING FUSED RING DERIVATIVE INHIBITOR, PREPARATION METHOD THEREFOR AND USE THEREOF” (Shanghai Hansoh Biomedical Co., Ltd., priority 2020, published 2023).

One may read the IC50 as the concentration that inhibits the measured activity by half. For the molecule `[2H]c1cc(C(=O)N2CCn3c(-c4nc5cc(F)c(F)cc5s4)nnc3[C@H]2C)ccc1Cl` [Example 99, (R)-(4-Chlorophenyl-3-d)(3-(5,6-difluorobenzo[d]thiazol-2-yl)-8-methyl-5,6-dihydro-[1,2,4]triazolo[4,3-a]pyrazin-7(8H)-yl)methanone], the IC50 was 56.2 nM on NK3 receptors [1] and 23.3 nM on NK3 receptors [2].
As to `Cc1cccc2sc(-c3nnc4n3CCN(C(=O)c3ccc(F)cc3)[C@@H]4C)nc12` [Example 22, (R)-(4-Fluorophenyl)(8-methyl-3-(4-methylbenzo[d]thiazol-2-yl)-5,6-dihydro-[1,2,4]triazolo[4,3-a]pyrazin-7(8H)-yl)methanone], the IC50 was determined as 73.3 nM on NK3 receptors [1] and 57 nM at NK3 receptors [2].
As to `C[C@@H]1c2nnc(-c3nc4ccc(Cl)cc4s3)n2CCN1C(=O)c1ccc(F)cc1` [Example 19, (R)-(3-(6-Chlorobenzo[d]thiazol-2-yl)-8-methyl-5,6-dihydro-[1,2,4]triazolo[4,3-a]pyrazin-7(8H)-yl)(4-fluorophenyl)methanone], the results for the IC50 on NK3 receptors [1] and at NK3 receptors [2] were 10.9 nM and 15.6 nM, respectively.
Regarding `C[C@@H]1c2nnc(-c3nc4ccccc4s3)n2CCN1C(=O)c1ccc(Cl)c(Cl)c1` [Example 4, (R)-(3-(Benzo[d]thiazol-2-yl)-8-methyl-5,6-dihydro-[1,2,4]triazolo[4,3-a]pyrazin-7 (8H)-yl)(3,4-dichlorophenyl)methanone], the IC50 came to 61.3 nM at NK3 receptors [1] and 94.3 nM at NK3 receptors [2].
As to `C[C@@H]1c2nnc(-c3nc4cc(F)ccc4s3)n2CCN1C(=O)c1ccc(F)cc1` [Example 9, (R)-(3-(5-Fluorobenzo[d]thiazol-2-yl)-8-methyl-5,6-dihydro-[1,2,4]triazolo[4,3-a]pyrazin-7(8H)-yl)(4-fluorophenyl)methanone], the IC50 at NK3 receptors [1] amounted to 33.3 nM; at NK3 receptors [2], 46 nM.
The corresponding values for `Cc1cccc2sc(-c3nnc4n3CCN(C(=O)c3ccc(Cl)cc3)[C@@H]4C)nc12` [Example 23, (R)-(4-Chlorophenyl)(8-methyl-3-(4-methylbenzo[d]thiazol-2-yl)-5,6-dihydro-[1,2,4]triazolo[4,3-a]pyrazin-7(8H)-yl)methanone] are 97.8 nM and 43.6 nM.
Regarding `C[C@@H]1c2nnc(-c3nc4ccc(C#N)cc4s3)n2CCN1C(=O)c1ccc(F)cc1` [Example 21, (R)-2-(7-(4-Fluorobenzoyl)-8-methyl-5,6,7,8-tetrahydro-[1,2,4]triazolo[4,3-a]pyrazin-3-yl)benzo[d]thiazol-6-carbonitrile], the IC50 stood at 123 nM at NK3 receptors [1] and 28.2 nM on NK3 receptors [2].
As for `Cc1ccc2nc(-c3nnc4n3CCN(C(=O)c3ccc(Cl)c(Cl)c3)[C@@H]4C)sc2c1` [Example 26, (R)-(3,4-Dichlorophenyl)(8-methyl-3-(6-methylbenzo[d]thiazol-2-yl)-5,6-dihydro-[1,2,4]triazolo[4,3-a]pyrazin-7(8H)-yl)methanone], the IC50 at NK3 receptors [1] amounted to 96.7 nM; at NK3 receptors [2] it was 36.1 nM.
On to `C[C@@H]1c2nnc(-c3nc(Cl)ns3)n2CCN1C(=O)c1cc(F)c(F)c(F)c1` [Example 58, (R)-(3-(3-Chloro-1,2,4-thiadiazol-5-yl)-8-methyl-5,6-dihydro-[1,2,4]triazolo[4,3-a]pyrazin-7(8H)-yl)(3,4,5-trifluorophenyl)methanone], for which the results for the IC50 on NK3 receptors [1] and on NK3 receptors [2] were 183 nM and 84.1 nM, respectively.
The corresponding values for `C[C@@H]1c2nnc(-c3nc(N(C)C)ns3)n2CCN1C(=O)c1ccc(F)cc1` [Example 60, (R)-(3-(3-(Dimethylamino)-1,2,4-thiadiazol-5-yl)-8-methyl-5,6-dihydro-[1,2,4]triazolo[4,3-a]pyrazin-7(8H)-yl)(4-fluorophenyl)methanone] are 205 nM and 190 nM.
In the case of `C[C@@H]1c2nnc(-c3nc4cc(F)ccc4s3)n2CCN1C(=O)c1ccc(Cl)cc1` [Example 10, (R)-(4-Chlorophenyl)(3-(5-fluorobenzo[d]thiazol-2-yl)-8-methyl-5,6-dihydro-[1,2,4]triazolo[4,3-a]pyrazin-7(8H)-yl)methanone], the IC50 is 51.4 nM at NK3 receptors [1] and 172 nM at NK3 receptors [2].
For `[2H]c1c([2H])c(C(=O)N2CCn3c(-c4nc(Cl)ns4)nnc3[C@H]2C)c([2H])c([2H])c1F` [Example 55, (R)-(3-(3-Chloro-1,2,4-thiadiazol-5-yl)-8-methyl-5,6-dihydro-[1,2,4]triazolo[4,3-a]pyrazin-7(8H)-yl)(4-fluorophenyl-2,3,5,6-d4)methanone], the IC50 at NK3 receptors [1] came out at 219 nM; at NK3 receptors [2] it was 88.3 nM.
With `C[C@@H]1c2nnc(-c3nc(Br)ns3)n2CCN1C(=O)c1ccc(F)cc1` [Example 98], the IC50 on NK3 receptors [1] was found to be 78.4 nM; at NK3 receptors [2], 100 nM.
Turning to `[2H]C([2H])([2H])N(c1nsc(-c2nnc3n2CCN(C(=O)c2ccc(Cl)cc2)[C@@H]3C)n1)C([2H])([2H])[2H]` [Example 107, (R)-(3-(3-(Bis(methyl-d3)amino)-1,2,4-thiadiazol-5-yl)-8-methyl-5,6-dihydro-[1,2,4]triazolo[4,3-a]pyrazin-7(8H)-yl)(4-chlorophenyl)methanone], the IC50 on NK3 receptors [1] worked out at 184 nM; on NK3 receptors [2] it was 80.5 nM.
On to `Cc1ccc2nc(-c3nnc4n3CCN(C(=O)c3ccc(F)cc3)[C@@H]4C)sc2c1` [Example 24, (R)-(4-Fluorophenyl)(8-methyl-3-(6-methylbenzo[d]thiazol-2-yl)-5,6-dihydro-[1,2,4]triazolo[4,3-a]pyrazin-7(8H)-yl)methanone], for which the IC50 at NK3 receptors [1] was found to be 45.6 nM; at NK3 receptors [2] it was 49.5 nM.
The matching figures for `C[C@@H]1c2nnc(-c3nc4cc(F)ccc4s3)n2CCN1C(=O)c1ccc(Cl)c(Cl)c1` [Example 11, (R)-(3,4-Dichlorophenyl)(3-(5-fluorobenzo[d]thiazol-2-yl)-8-methyl-5,6-dihydro-[1,2,4]triazolo[4,3-a]pyrazin-7(8H)-yl)methanone]: 47.5 nM and 176 nM.
`C[C@@H]1c2nnc(-c3nc4ccc(F)cc4s3)n2CCN1C(=O)c1ccc(Cl)cc1` [Example 13, (R)-(4-Chlorophenyl)(3-(6-fluorobenzo[d]thiazol-2-yl)-8-methyl-5,6-dihydro-[1,2,4]triazolo[4,3-a]pyrazin-7(8H)-yl)methanone]: the IC50 on NK3 receptors [1] is 71.6 nM; at NK3 receptors [2], 131 nM.
Take `[2H]c1cc(C(=O)N2CCn3c(-c4nc5cc(Cl)c(F)cc5s4)nnc3[C@H]2C)ccc1F` [Example 105, (R)-(3-(5-Chloro-6-fluorobenzo[d]thiazol-2-yl)-8-methyl-5,6-dihydro-[1,2,4]triazolo[4,3-a]pyrazin-7(8H)-yl)(4-fluorophenyl-3-d)methanone]: the IC50 on NK3 receptors [1] was found to be 268 nM; on NK3 receptors [2] it was 108 nM.
As for `Cc1ccc2nc(-c3nnc4n3CCN(C(=O)c3ccc(Cl)cc3)[C@@H]4C)sc2c1` [Example 25, (R)-(4-Chlorophenyl)(8-methyl-3-(6-methylbenzo[d]thiazol-2-yl)-5,6-dihydro-[1,2,4]triazolo[4,3-a]pyrazin-7(8H)-yl)methanone], the IC50 is 58.4 nM on NK3 receptors [1] and 47.8 nM at NK3 receptors [2].
